# What was measured:
# [1] = tested on: IL-12/IL-18-induced IFN-γ secretion by mouse immune cells; assay: IL-12/IL-18-induced IFN-γ secretion in mice (serum ELISA); format: in vivo, C57BL/6J mice
# Procedure: The purpose of this experiment was to evaluate the inhibitory effect of the compound on IL-12/IL-18-induced IFN-γ secretion by immune cells in mice. The IFN-γ protein level in serum samples of mice treated with the compound was detected using the enzyme-linked immunosorbent assay (ELISA) method.
# This experiment was conducted twice.
# The compounds were all prepared into a clear solution with 10% DMSO+10% solutol+80% (10% HP-β-CD) as a solvent for PO (oral gavage) administration. The frequency of administration was once daily (QD).
# • a) According to the grouping, the mice were administered by gavage (P0) with either the compound formulation or solvent control. • b) One hour later, each mouse received an intraperitoneal injection of IL-12 (0.01 μg per mouse) or PBS buffer. • c) One hour after IL-12 administration, each mouse received an intraperitoneal injection of IL-18 (1 μg per mouse) or PBS buffer. • d) Blood was collected three hours after IL-18 administration, and serum was separated.
# • a) Prior to use, all reagents were mixed thoroughly to avoid foaming. • b) The number of strips required was determined based on the number of experimental wells (blanks and standards). Duplicate tests were performed for samples (including standards) and blanks. • c) Sample addition: 100 μL/well of the diluted Cytokine standard was added to the standard wells, 100 μL/well of the sample was added to the sample wells, and 100 μL/well of Dilution buffer R (1×) was added to the blank control wells. • d) Detection antibody addition: 50 μL/well of Biotinylated antibody working solution was added. After mixing, the plate was covered with a sealing film and incubated at 37° C. for 90 minutes. • e) Plate washing: The liquid was discarded from the wells, then 300 μL/well of 1× Washing buffer working solution was added, and allowed to stand for 1 minute before the liquid was discarded from the wells. […]
# The plate was covered with a sealing film and incubated at 37° C. for 30 minutes. • g) Plate washing: Step 5 was repeated. • h) Color development: 100 μL/well of TMB was added, then the plate was incubated at 37° C. in the dark for 5 to 30 minutes, and the reaction was terminated depending on the intensity of the color (dark blue) in the well. […] Dual wavelengths were recommended for reading the plate, specifically measuring at a measurement wavelength of 450 nm and a reference wavelength of 610 to 630 nm simultaneously.
# The expression level of each sample was calculated based on the standard curve, and statistical analysis of the results for each group was performed, including mean and standard error of the mean (SEM). […] All data were analyzed using GraphPad Prism 6.02.
# [2] = tested on: acute colitis induced by CD40 antibody; assay: Mouse model of acute colitis induced by CD40 antibody; format: in vivo, CB-17 SCID mice; parameters: DAI score: scale not given here; settings: mean
# Procedure: The purpose of this experiment was to evaluate the alleviating effect of the compound on colitis in a mouse model induced by CD40 antibody.
# CB-17 SCID mice were randomly divided into groups. Each group consisted of 6 mice, which received an intraperitoneal injection (IP) of CD40 antibody (80 μg per mouse) on Day 0. The positive control drug IL-12 P40 antibody and the test compound were administered from Day-1 to Day 4, with Day 5 being the endpoint of the experiment. The positive control drug IL-12 P40 antibody was administered via intraperitoneal injection (IP) once every three days; the test compound was administered by gavage (PO) twice a day (BID).
# The compounds were all prepared into a clear solution with 10% DMSO+10% solutol+80% (10% HP-3-CD) as a solvent for PO (oral gavage) administration. Administration volume parameters: 10 mL/kg based on the body weight of the mice.
# IL-12 P40 antibody and the test compound were administered from Day-1 to Day 4. On Day 0, 30 minutes after administration, 200 μL of CD40 antibody (4 mg/kg) was intraperitoneally injected, while mice in the blank control group were intraperitoneally injected with 200 μL of DPBS. Body weight was recorded and feces were scored during the experiment.
# Fecal scoring involved placing each mouse individually in a specially designed cage for about 10 minutes for scoring. The fecal scoring criteria were as per Table 27.
# If blood is observed in the feces or around the anus, occult blood testing is not conducted. For the remaining mice without visible bloody stools, feces are collected for occult blood testing. Occult blood scoring is based on the assumption that the daily test results for the mice in the Normal group are 0. Each day, the fecal samples of four mice from the blank control group are observed for the time taken to develop color on the occult blood test strips. The shortest time required for color development in the feces of these four mice is set as the daily threshold. If the feces develop color before this time point and the color intensifies within 1 to 2 minutes, a score of 2 is assigned.
# The body weight and Disease Activity Index (DAI) scores of the animals were recorded daily to assess the disease progression in each group and the effect of the test compound on the disease. The daily Disease Activity Index (DAI) score consists of three parts, with specific criteria referenced in Table 27.
# [3] = single PO administration 3 mg/kg
# [4] = single PO administration 10 mg/kg
SMILES,"Serum IFN-γ inhibition rate (%) [1, 3] [%]","Serum IFN-γ inhibition rate (%) [1, 4] [%]","DAI score ([2]; 50 mg/kg PO BID, Day 0)","Weight change rate (%) ([2]; 50 mg/kg PO BID, Day 0)","DAI score ([2]; 50 mg/kg PO BID, Day 1)","Weight change rate (%) ([2]; 50 mg/kg PO BID, Day 1)","DAI score ([2]; 50 mg/kg PO BID, Day 2)","Weight change rate (%) ([2]; 50 mg/kg PO BID, Day 2)","DAI score ([2]; 50 mg/kg PO BID, Day 3)","Weight change rate (%) ([2]; 50 mg/kg PO BID, Day 3)","DAI score ([2]; 50 mg/kg PO BID, Day 4)","Weight change rate (%) ([2]; 50 mg/kg PO BID, Day 4)","DAI score ([2]; 50 mg/kg PO BID, Day 5)","Weight change rate (%) ([2]; 50 mg/kg PO BID, Day 5)","DAI score ([2]; 50 mg/kg PO BID, Day -1)","Weight change rate (%) ([2]; 50 mg/kg PO BID, Day -1)",further results
CNC(=O)c1cnc(NC(=O)C2CC2)cc1Nc1cccc(-c2ccc(S(=O)(=O)C(C)C)cn2)c1OC [WX-020],40,86,,,,,,,,,,,,,,,
"CNC(=O)c1nnc(NC(=O)C2CC2)cc1Nc1cccc(-c2ncc(S(=N)(=O)C(C)C)cn2)c1OC.Cl (single isomer, unassigned) [Hydrochloride of WX-011A]",,,0.33,100.63,1.00,99.54,1.83,97.69,0.67,100.43,0.50,100.96,1.17,99.34,0.00,100.00,"DAI score ([2]; 30 mg/kg PO BID, Day 0): 0.17; Weight change rate (%) ([2]; 30 mg/kg PO BID, Day 0): 100.60%; DAI score ([2]; 30 mg/kg PO BID, Day 1): 1.00; Weight change rate (%) ([2]; 30 mg/kg PO BID, Day 1): 100.01%; DAI score ([2]; 30 mg/kg PO BID, Day 2): 2.17; Weight change rate (%) ([2]; 30 mg/kg PO BID, Day 2): 95.93%; DAI score ([2]; 30 mg/kg PO BID, Day 3): 0.83; Weight change rate (%) ([2]; 30 mg/kg PO BID, Day 3): 98.85%; DAI score ([2]; 30 mg/kg PO BID, Day 4): 0.50; Weight change rate (%) ([2]; 30 mg/kg PO BID, Day 4): 99.69%; DAI score ([2]; 30 mg/kg PO BID, Day 5): 1.00; Weight change rate (%) ([2]; 30 mg/kg PO BID, Day 5): 97.07%; DAI score ([2]; 30 mg/kg PO BID, Day -1): 0.00; Weight change rate (%) ([2]; 30 mg/kg PO BID, Day -1): 100.00%"
CNC(=O)c1cnc(NC(=O)C2CC2)cc1Nc1cccc(-c2ccc(S(=O)(=O)C(C)C)cn2)c1OC.O=S(=O)(O)O [Sulfate of WX-020],,,0.33,100.48,1.17,98.37,2.67,95.22,0.83,100.73,0.33,100.81,0.50,100.44,0.00,100.00,"DAI score ([2]; 100 mg/kg PO BID, Day 0): 0.33; Weight change rate (%) ([2]; 100 mg/kg PO BID, Day 0): 100.78%; DAI score ([2]; 100 mg/kg PO BID, Day 1): 1.33; Weight change rate (%) ([2]; 100 mg/kg PO BID, Day 1): 99.88%; DAI score ([2]; 100 mg/kg PO BID, Day 2): 1.67; Weight change rate (%) ([2]; 100 mg/kg PO BID, Day 2): 97.14%; DAI score ([2]; 100 mg/kg PO BID, Day 3): 0.50; Weight change rate (%) ([2]; 100 mg/kg PO BID, Day 3): 99.65%; DAI score ([2]; 100 mg/kg PO BID, Day 4): 0.33; Weight change rate (%) ([2]; 100 mg/kg PO BID, Day 4): 101.16%; DAI score ([2]; 100 mg/kg PO BID, Day 5): 0.33; Weight change rate (%) ([2]; 100 mg/kg PO BID, Day 5): 100.90%; DAI score ([2]; 100 mg/kg PO BID, Day -1): 0.00; Weight change rate (%) ([2]; 100 mg/kg PO BID, Day -1): 100.00%"
"CNC(=O)c1nnc(NC(=O)C2CC2)cc1Nc1cccc(-c2ncc(S(=N)(=O)C(C)C)cn2)c1OC (single isomer, unassigned) [WX-011A]",64,96,,,,,,,,,,,,,,,

# — patent publication US20240335462A1, “SULFUR/PHOSPHORUS-CONTAINING ARYL COMPOUND AND APPLICATION THEREOF” (MEDSHINE DISCOVERY INC., priority 2021, published 2024)
